Reference: EP2607478A1, “Phenanthroline treated MSC” (Universiteit Twente, priority 2011, dated 2013)

System: MSCs
Assay: Whole genome expression analysis (Illumina microarray) of treated MSCs
Assay type: cell-based, Human
Method: MSCs were seeded in T25 flasks at 5000 cells/cm^2 and allowed to attach overnight in proliferation medium. […] After 48 hours, RNA was isolated as described above. From 500 ng of RNA, cRNA was synthesized using the Illumina TotalPrep RNA amplification Kit (Ambion), according to the manufacturer's protocol and the quality of RNA and cRNA was verified on a Bioanalyzer 2100 (Agilent). Microarrays were performed using Illumina HT-12 v4 expression Beadchips, according to the manufacturer's protocol. Briefly, 750 ng of cRNA was hybridized on the array overnight after which the array was washed and blocked. Then, by addition of streptavidin Cy-3 a fluorescent signal was developed. Arrays were scanned on an Illumina iScan reader and raw intensity values were background corrected in GenomeStudio (Illumina). Further data processing and statistical testing were performed with R and Bioconductor statistical software (www.bioconductor.org), using package lumi. Raw intensity values were transformed using variance stabilization and a quantile normalization was performed. A linear modelling approach with empirical Bayesian methods, as implemented in Limma package (54), was applied for differential expression analysis of the resulting probe-level expression values. A gene list, containing only those genes with an absolute 1.5-fold change between different treatments, was uploaded to Ingenuity Pathway Analysis (IPA) software and used for core analysis. Pathways or networks with a p-value of 0.05 were considered statistically significant.

## c1cnc2c(c1)ccc1cccnc12 [PHE, 1, 10-phenanthroline]
ProbeID ILMN_1759598
  logFC(D142_PHE - D142_BAS) DLX5: -2,28
ProbeID ILMN_1761941
  logFC(D142_PHE - D142_BAS) C4orf18: -2,15
ProbeID ILMN_1764090
  logFC(D142_PHE - D142_BAS) AK3L1: 3,40
ProbeID ILMN_1764177
  logFC(D142_PHE - D142_BAS) JARID2: 2,12
ProbeID ILMN_1764764
  logFC(D142_PHE - D142_BAS) MUM1: -2,05
ProbeID ILMN_1765557, PHE vs BAS
  logFC(D142_PHE - D142_BAS) OLFML2B: -3,04
ProbeID ILMN_1765701, PHE vs BAS
  logFC(D142_PHE - D142_BAS) LOC399942: -2,98
ProbeID ILMN_1765796
  logFC(D142_PHE - D142_BAS) ENO2: 4,72
ProbeID ILMN_1765990, PHE vs BAS
  logFC(D142_PHE - D142_BAS) KCNK2: -2,82
ProbeID ILMN_1767556
  logFC(D142_PHE - D142_BAS) C10orf10: 3,71
ProbeID ILMN_1768973
  logFC(D142_PHE - D142_BAS) HIST2H2AC: 3,39
ProbeID ILMN_1769158
  logFC(D142_PHE - D142_BAS) ISOC2: -2,08
ProbeID ILMN_1770228
  logFC(D142_PHE - D142_BAS) KRT34: 2,77
ProbeID ILMN_1770290, PHE vs BAS
  logFC(D142_PHE - D142_BAS) CNN2: -3,30
ProbeID ILMN_1772612, PHE vs BAS
  logFC(D142_PHE - D142_BAS) ANGPTL2: -2,93
ProbeID ILMN_1772644
  logFC(D142_PHE - D142_BAS) EML3: -2,23
ProbeID ILMN_1772876
  logFC(D142_PHE - D142_BAS) ZNF395: 3,66
ProbeID ILMN_1772910, PHE vs BAS
  logFC(D142_PHE - D142_BAS) GAS1: -3,75
ProbeID ILMN_1773407
  logFC(D142_PHE - D142_BAS) C16orf72: 2,40
ProbeID ILMN_1774390
  logFC(D142_PHE - D142_BAS) LOC441054: 2,68
ProbeID ILMN_1774602, PHE vs BAS
  logFC(D142_PHE - D142_BAS) FBLN2: -2,40
ProbeID ILMN_1775380
  logFC(D142_PHE - D142_BAS) SMOX: 2,29
ProbeID ILMN_1775708
  logFC(D142_PHE - D142_BAS) SLC2A3: 3,23
ProbeID ILMN_1775743
  logFC(D142_PHE - D142_BAS) BTG1: 2,36
ProbeID ILMN_1776953
  logFC(D142_PHE - D142_BAS) MYL9: -2,25
ProbeID ILMN_1777325
  logFC(D142_PHE - D142_BAS) STAT1: -2,01
ProbeID ILMN_1777499
  logFC(D142_PHE - D142_BAS) LOC731007: 2,46
ProbeID ILMN_1777513
  logFC(D142_PHE - D142_BAS) KCTD11: 3,02
ProbeID ILMN_1779258
  logFC(D142_PHE - D142_BAS) LOC644774: 3,09
ProbeID ILMN_1784294
  logFC(D142_PHE - D142_BAS) CPA4: 5,44
ProbeID ILMN_1784300
  logFC(D142_PHE - D142_BAS) TUBA4A: 2,80
ProbeID ILMN_1784948, PHE vs BAS
  logFC(D142_PHE - D142_BAS) SPOCD1: -3,46
ProbeID ILMN_1785891, PHE vs BAS
  logFC(D142_PHE - D142_BAS) PRKD1: -2,51
ProbeID ILMN_1786065
  logFC(D142_PHE - D142_BAS) UHRF1: -2,25
ProbeID ILMN_1786612, PHE vs BAS
  logFC(D142_PHE - D142_BAS) PSME2: -2,64
ProbeID ILMN_1787981
  logFC(D142_PHE - D142_BAS) MFAP2: -2,29
ProbeID ILMN_1789507, PHE vs BAS
  logFC(D142_PHE - D142_BAS) COL11A1: -3,53
ProbeID ILMN_1789702
  logFC(D142_PHE - D142_BAS) GBE1: 2,68
ProbeID ILMN_1789991
  logFC(D142_PHE - D142_BAS) Mar-04: 2,06
ProbeID ILMN_1790338, PHE vs BAS
  logFC(D142_PHE - D142_BAS) PRRX2: -2,93
ProbeID ILMN_1790461
  logFC(D142_PHE - D142_BAS) C6orf125: -2,25
ProbeID ILMN_1790529, PHE vs BAS
  logFC(D142_PHE - D142_BAS) LUM: -3,46
ProbeID ILMN_1790689
  logFC(D142_PHE - D142_BAS) CRISPLD2: -2,32
ProbeID ILMN_1790778
  logFC(D142_PHE - D142_BAS) PNMA2: 2,46
ProbeID ILMN_1791447, PHE vs BAS
  logFC(D142_PHE - D142_BAS) CXCL12: -3,48
ProbeID ILMN_1792356
  logFC(D142_PHE - D142_BAS) DPYSL4: 3,91
ProbeID ILMN_1792455
  logFC(D142_PHE - D142_BAS) TMEM158: 3,06
ProbeID ILMN_1792689
  logFC(D142_PHE - D142_BAS) HIST1H2AC: 2,10
ProbeID ILMN_1794017
  logFC(D142_PHE - D142_BAS) SERTAD1: 2,93
ProbeID ILMN_1794132
  logFC(D142_PHE - D142_BAS) NDUFS8: -2,07
ProbeID ILMN_1794501, PHE vs BAS
  logFC(D142_PHE - D142_BAS) HAS3: -2,42
ProbeID ILMN_1794863
  logFC(D142_PHE - D142_BAS) CAMK2N1: 2,88
ProbeID ILMN_1795963
  logFC(D142_PHE - D142_BAS) OKL38: 2,72
ProbeID ILMN_1796179
  logFC(D142_PHE - D142_BAS) HIST1H2BK: 2,23
ProbeID ILMN_1796471
  logFC(D142_PHE - D142_BAS) GDF5: -2,25
ProbeID ILMN_1797372
  logFC(D142_PHE - D142_BAS) C3orf58: 2,45
ProbeID ILMN_1797728
  logFC(D142_PHE - D142_BAS) HMGCS1: -2,20
ProbeID ILMN_1798249
  logFC(D142_PHE - D142_BAS) AK3L1: 3,18
ProbeID ILMN_1798360
  logFC(D142_PHE - D142_BAS) CXCR7: 2,96
ProbeID ILMN_1798654
  logFC(D142_PHE - D142_BAS) MCM6: -2,31
ProbeID ILMN_1800091
  logFC(D142_PHE - D142_BAS) RARRES1: -2,22
ProbeID ILMN_1800512
  logFC(D142_PHE - D142_BAS) HMOX1: 2,82
ProbeID ILMN_1800697, PHE vs BAS
  logFC(D142_PHE - D142_BAS) LDB2: -2,38
ProbeID ILMN_1801077
  logFC(D142_PHE - D142_BAS) PLIN2: 3,49
ProbeID ILMN_1801156
  logFC(D142_PHE - D142_BAS) RLF: 2,05
ProbeID ILMN_1801313
  logFC(D142_PHE - D142_BAS) SIAH2: 2,15
ProbeID ILMN_1801610
  logFC(D142_PHE - D142_BAS) METRNL: 2,03
ProbeID ILMN_1801939, PHE vs BAS
  logFC(D142_PHE - D142_BAS) CCNB2: -2,66
ProbeID ILMN_1802654
  logFC(D142_PHE - D142_BAS) GLT8D2: -2,05
ProbeID ILMN_1803647
  logFC(D142_PHE - D142_BAS) FAM162A: 2,36
ProbeID ILMN_1803825, PHE vs BAS
  logFC(D142_PHE - D142_BAS) CXCL12: -2,38
ProbeID ILMN_1803882
  logFC(D142_PHE - D142_BAS) VEGFA: 4,07
ProbeID ILMN_1804822
  logFC(D142_PHE - D142_BAS) SRXN1: 2,32
ProbeID ILMN_1805561, PHE vs BAS
  logFC(D142_PHE - D142_BAS) SLC14A1: -2,57
ProbeID ILMN_1805737
  logFC(D142_PHE - D142_BAS) PFKP: 2,32
ProbeID ILMN_1806037
  logFC(D142_PHE - D142_BAS) TK1: -2,14
ProbeID ILMN_1806349
  logFC(D142_PHE - D142_BAS) SLC6A8: 2,45
ProbeID ILMN_1808657, PHE vs BAS
  logFC(D142_PHE - D142_BAS) FMO3: -2,85
ProbeID ILMN_1809813
  logFC(D142_PHE - D142_BAS) PGF: 3,28
ProbeID ILMN_1809931
  logFC(D142_PHE - D142_BAS) NDRG1: 4,06
ProbeID ILMN_1810560
  logFC(D142_PHE - D142_BAS) P8: 2,09
ProbeID ILMN_1810628
  logFC(D142_PHE - D142_BAS) KIAA0367: -2,12
ProbeID ILMN_1810836, PHE vs BAS
  logFC(D142_PHE - D142_BAS) PDE5A: -3,04
ProbeID ILMN_1811909
  logFC(D142_PHE - D142_BAS) LOC402221: -2,18
ProbeID ILMN_1812091
  logFC(D142_PHE - D142_BAS) FAM20A: -2,34
ProbeID ILMN_1813314
  logFC(D142_PHE - D142_BAS) HIST1H2BK: 2,41
ProbeID ILMN_1813704, PHE vs BAS
  logFC(D142_PHE - D142_BAS) KIAA1199: -4,06
ProbeID ILMN_1814998
  logFC(D142_PHE - D142_BAS) FKSG30: -2,20
ProbeID ILMN_1815023
  logFC(D142_PHE - D142_BAS) PIM1: 2,29
ProbeID ILMN_1815121
  logFC(D142_PHE - D142_BAS) PLAGL1: 2,24
ProbeID ILMN_1815626
  logFC(D142_PHE - D142_BAS) DHCR7: -2,12
ProbeID ILMN_1815859
  logFC(D142_PHE - D142_BAS) ERCC2: -2,17
ProbeID ILMN_1816244, no gene name printed
  logFC(D142_PHE - D142_BAS): 2,02
